# Measurements: ChEMBL document CHEMBL5543094, “Exploration of P1 and P4 modifications of nirmatrelvir: Design, synthesis, biological evaluation, and X-ray structural studies of SARS-CoV-2 Mpro inhibitors” (Eur J Med Chem, 2024)
# The source made the active and inactive calls. The rule behind the calls is not given here.
# How the values were obtained:
# [1] = tested on: SARS-CoV-2; assay: Antiviral activity against SARS-CoV-2 WK-521 infected in African green monkey VeroE6/TMPRSS2 cells assessed as reduction in virus infectivity at 10 to 100 uM by immunocytochemistry analysis; type: functional, organism-based; conditions: Severe acute respiratory syndrome coronavirus 2, dose 10-100 µM
# [2] = tested on: SARS-CoV-2; assay: Antiviral activity against SARS-CoV-2 WK-521 infected in African green monkey VeroE6/TMPRSS2 cells assessed as reduction in virus infectivity at 1 uM by immunocytochemistry analysis; type: functional, organism-based; conditions: Severe acute respiratory syndrome coronavirus 2
# [3] = tested on: SARS-CoV-2; assay: (§1) Antiviral activity against SARS-CoV-2 infected in African green monkey Vero E6 cells assessed as reduction in viral replication pre-infected with cells for 1 hr followed by compound treatment and measured after 3 days by RT-qPCR analysis; type: functional, organism-based; conditions: Severe acute respiratory syndrome coronavirus 2, Vero C1008
# [4] = target: Replicase polyprotein 1ab (Severe acute respiratory syndrome coronavirus 2, UniProt P0DTD1); assay: Inhibition of N-terminal hexa-histidine tagged SARS-CoV-2 main protease expressed in Escherichia coli BL21 (DE3) using HiLyte Fluor 488TM-ESATLQSGLRKAK-QXL520TM-NH2 as substrate by FRET assay
# [5] = tested on: SARS-CoV-2; assay: as §1, with “Potency index, ratio of nirmatrelvir EC50 to test compound EC50 for antiviral” for “Antiviral”; type: functional, Severe acute respiratory syndrome coronavirus 2; conditions: time 3 day
SMILES,Activity [1],Activity [2],EC50 [3] [nM],Ki [4] [nM],Ratio EC50 [5]
CC(C)(C)[C@H](NC(=O)C(F)(F)F)C(=O)N1C[C@H]2[C@@H]([C@H]1C(=O)N[C@H](C#N)C[C@@H]1CCNC1=O)C2(C)C,Active,inactive,,,
CC(C)(C)NC(=O)N[C@H](C(=O)N1C[C@H]2[C@@H]([C@H]1C(=O)N[C@H](C#N)C[C@@H]1CCNC1=O)C2(C)C)C(C)(C)C,,,100000,,
CC(C)(C)[C@H](NC(=O)C(F)(F)F)C(=O)N1C[C@H]2[C@@H]([C@H]1C(=O)N(C(=O)C(F)(F)F)[C@H](C#N)C[C@@H]1CCNC1=O)C2(C)C,,,100000,32300,
CC(C)(C)[C@H](NC(=O)C(F)(F)F)C(=O)N1C[C@H]2[C@@H]([C@H]1C(=O)N[C@H](C#N)C[C@@H]1CCCNC1=O)C2(C)C,Active,,260,0.04,7
CC(C)(C)C(=O)N[C@H](C(=O)N1C[C@H]2[C@@H]([C@H]1C(=O)N[C@H](C#N)C[C@@H]1CCNC1=O)C2(C)C)C(C)(C)C,,,2300,22.1,
CC(C)(C)[C@H](NC(=O)OCc1ccccc1)C(=O)N1C[C@H]2[C@@H]([C@H]1C(=O)N[C@H](C#N)C[C@@H]1CCNC1=O)C2(C)C,,,290,0.025,
CCC(CC)COC(=O)[C@H](C)N[P@](=O)(OC[C@H]1O[C@@](C#N)(c2ccc3c(N)ncnn23)[C@H](O)[C@@H]1O)Oc1ccccc1,,,3200,,
CC(=O)N[C@H](C(=O)N1C[C@H]2[C@@H]([C@H]1C(=O)N[C@H](C#N)C[C@@H]1CCNC1=O)C2(C)C)C(C)(C)C,,,4000,0.44,
CC(C)(C)[C@H](NC(=O)C(Cl)(Cl)Cl)C(=O)N1C[C@H]2[C@@H]([C@H]1C(=O)N[C@H](C#N)C[C@@H]1CCCNC1=O)C2(C)C,,,270,1.1,>7
CC(C)(C)[C@H](NC(=O)OCc1ccncc1)C(=O)N1C[C@H]2[C@@H]([C@H]1C(=O)N[C@H](C#N)C[C@@H]1CCNC1=O)C2(C)C,,,40100,0.49,
CC(C)(C)[C@H](NC(=O)C(Cl)(Cl)Cl)C(=O)N1C[C@H]2[C@@H]([C@H]1C(=O)N[C@H](C#N)C[C@@H]1CCNC1=O)C2(C)C,,,1600,0.2,
CC(C)(C)[C@H](NC(=O)OCc1cccnc1)C(=O)N1C[C@H]2[C@@H]([C@H]1C(=O)N[C@H](C#N)C[C@@H]1CCNC1=O)C2(C)C,,,35,0.09,
CC(C)(C)[C@H](NC(=O)OCc1ccncc1)C(=O)N1C[C@H]2[C@@H]([C@H]1C(=O)N[C@H](C#N)C[C@@H]1CCCNC1=O)C2(C)C,,,27100,7.8,
CC(C)(C)[C@H](NC(=O)OCc1ccccn1)C(=O)N1C[C@H]2[C@@H]([C@H]1C(=O)N[C@H](C#N)C[C@@H]1CCNC1=O)C2(C)C,,,29700,32.2,
CC(C)(C)[C@H](NC(=O)c1ccccc1)C(=O)N1C[C@H]2[C@@H]([C@H]1C(=O)N[C@H](C#N)C[C@@H]1CCNC1=O)C2(C)C,,,17000,36.9,
CC(C)(C)[C@H](NC(=O)OCc1cccnc1)C(=O)N1C[C@H]2[C@@H]([C@H]1C(=O)N[C@H](C#N)C[C@@H]1CCCNC1=O)C2(C)C,,,3400,0.094,
